Several values for one entry are separate records, joined by “and”; a condition that tells them apart may be missing. Equal entries are not always repeated.
Test system: 521955-158-R2-J5-PDC complex spheroid viability
Experiment: Anticancer human tumor 521955-158-R2-J5-PDC patient-derived pancreatic carcinoma cell line growth inhibition [GQUAD]
Settings: for viability, T/C: stronger effect = lower value; active means viability on the fitted dose curve at most 10% of control; inactive means the rest
Excerpt: DNA G-quadruplex Stabilizer Agents in Combinations in Complex Spheroids
A high-throughput screen of multi-cell type tumor spheroids was designed to identify active combinations of DNA G-quadruplex stabilizer agents and targeted small molecules. Complex spheroids include a stromal component modeled by human endothelial cells (HUVEC) and fibroblasts modeled by human mesenchymal stem cells (MSCs). The concentration ranges selected for each drug and investigational agent were based upon clinically achievable concentrations if the clinical Cmax of the agent was known.
Compounds. The drugs and investigational agents: pidnarulex (CX-5461; NSC782164), APTO-253 (NSC789042), BRACO-19 (NSC847499), peposertib (NSC802822), ceralasertib (NSC780249), elimusertib (NSC800525), camonsertib (NSC841442), AZD-1390 (NSC803789), olaparib (NSC753686), talazoparib (NSC767125), ART-558 (NSC835418), sotorasib (NSC818433), MRTX-1133 (NSC836407), SN-38 (NSC673596), topotecan (NSC609699), etoposide (NSC141540), doxorubicin (NSC123127), gemcitabine (NSC613327), 5-fluorouracil (NSC19893), paclitaxel (NSC125973), vemurafenib (NSC761431), panobinostat (NSC761190), R-306465 (JNJ-16241199; NSC773264), adavosertib (NSC754352), TP-3654 (NSC805149), carboplatin (NSC241240), KSQ-4279 (NSC840948), and staurosporine (NSC755774) were obtained from the National Cancer Institute (NCI) Developmental Therapeutics Program Chemical Repository (34). The FDA-approved anticancer drug set is available from the NCI Developmental Therapeutics Program. […] The stock solutions were prepared in dimethyl sulfoxide (DMSO, Sigma-Aldrich, St. Louis, MO, cat. D2650) at 800-fold the tested concentration and stored at -70 degrees C prior to their use. All drugs and investigational agents were tested over a range starting from a high concentration at or near the clinical Cmax and decreasing in half-log increments. If the clinical Cmax for an agent had not been determined, the highest concentration tested was 10 microM.
2.3 Cell Culture. All cells were maintained in an incubator at 37 degrees C and 5% CO2 with 95% humidity. The PDC lines were cultured according to standard operating procedures established by the NCI PDMR. All PDCs were thawed and cultured in Matrigel-coated flasks prepared with a working solution of 1X Ham's F-12 nutrient mix, without supplementation (Invitrogen, cat. 11765054), 100 U/mL penicillin-streptomycin (Invitrogen, cat. 15140122), and 2.5% Matrigel (Corning Inc., cat. 354248) for the first three passages. The 857933-349-R-J2-PDC line was cultured in 6C/Colon 1B media, which includes advanced DMEM/F-12 (Thermo Fisher Scientific, cat. 12634028), 10 mM HEPES (Thermo Fisher Scientific, cat. 15630080), 1X GlutaMAX supplement (Thermo Fisher Scientific, cat. 35050061), 0.1 mg/mL primocin (InvivoGen, cat. ant-pm-2), 10% defined fetal bovine serum, heat inactivated (HyClone Laboratories Inc., cat. SH30070.03HI), 50% L-WRN conditioned media (ATCC, cat. CRL-3276), 1.25 mM N-Acetyl-L-cysteine (Sigma-Aldrich, cat. A9165), 10 mM nicotinamide (Sigma-Aldrich, cat. N0636), 1X B-27 supplement (Thermo Fisher Scientific, cat. 17504044), 1X N-2 supplement (Thermo Fisher Scientific, cat. 17502048), 10 microM Y-27632 dihydrochloride (Tocris Bioscience, cat. 1254), and 50 ng/mL human EGF recombinant protein (Thermo Fisher Scientific, cat. PHG0311). The 485176-168-R4-J1-PDC line was cultured in Panc media, which includes all 6C/Colon 1B media components plus 100 ng/mL human FGF-10 (Thermo Fisher Scientific, cat. 100-26), 500 nM SB-431542 (Selleckchem, cat. S1067), and gastrin (Tocris, cat. 3006).
[…]

[1] = curve of first compound, second compound 0.0316 µM
[2] = curve of first compound, second compound 0.1 µM
[3] = curve of first compound, second compound 0.316 µM
[4] = curve of first compound, second compound 1 µM
[5] = curve of first compound, second compound 3.16 µM
[6] = curve of first compound, second compound 10 µM
[7] = second compound 0.0316 µM, first compound 0.000999 µM
[8] = second compound 0.0316 µM, first compound 0.00316 µM
[9] = second compound 0.0316 µM, first compound 0.00999 µM
[10] = second compound 0.0316 µM, first compound 0.0316 µM
[11] = second compound 0.0316 µM, first compound 0.0999 µM
[12] = second compound 0.0316 µM, first compound 0.316 µM
[13] = second compound 0.1 µM, first compound 0.000999 µM
[14] = second compound 0.1 µM, first compound 0.00316 µM
[15] = second compound 0.1 µM, first compound 0.00999 µM
[16] = second compound 0.1 µM, first compound 0.0316 µM
[17] = second compound 0.1 µM, first compound 0.0999 µM
[18] = second compound 0.1 µM, first compound 0.316 µM
[19] = second compound 0.316 µM, first compound 0.000999 µM
[20] = second compound 0.316 µM, first compound 0.00316 µM
[21] = second compound 0.316 µM, first compound 0.00999 µM
[22] = second compound 0.316 µM, first compound 0.0316 µM
[23] = second compound 0.316 µM, first compound 0.0999 µM
[24] = second compound 0.316 µM, first compound 0.316 µM
[25] = second compound 1 µM, first compound 0.000999 µM
[26] = second compound 1 µM, first compound 0.00316 µM
[27] = second compound 1 µM, first compound 0.00999 µM
[28] = second compound 1 µM, first compound 0.0316 µM
[29] = second compound 1 µM, first compound 0.0999 µM
[30] = second compound 1 µM, first compound 0.316 µM
[31] = second compound 3.16 µM, first compound 0.000999 µM
[32] = second compound 3.16 µM, first compound 0.00316 µM
[33] = second compound 3.16 µM, first compound 0.00999 µM
[34] = second compound 3.16 µM, first compound 0.0316 µM
[35] = second compound 3.16 µM, first compound 0.0999 µM
[36] = second compound 3.16 µM, first compound 0.316 µM
[37] = second compound 10 µM, first compound 0.000999 µM
[38] = second compound 10 µM, first compound 0.00316 µM
[39] = second compound 10 µM, first compound 0.00999 µM
[40] = second compound 10 µM, first compound 0.0316 µM
[41] = second compound 10 µM, first compound 0.0999 µM
[42] = second compound 10 µM, first compound 0.316 µM
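Further: spheroids exposed to agents for one week before reading.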

Cc1cnc(CNC(=O)c2c(=O)c3ccc(N4CCCN(C)CC4)nc3n3c2sc2ccccc23)cn1
137 nM [middle of 11 runs]: IC50 (compound alone, run of 04/16/2024)
inactive: viability, T/C (compound 0.0316 µM) 79.7% [middle of 12 runs] | viability, T/C (compound 0.316 µM) 38.2% [middle of 12 runs] | viability, T/C (compound 1 µM) 22.1% [middle of 12 runs] | viability, T/C (compound 3.16 µM) 20.7% [middle of 12 runs] | viability, T/C (compound 10 µM) 18.8% [middle of 12 runs]

CC[C@@]1(O)C(=O)OCc2c1cc1n(c2=O)Cc2cc3c(CN(C)C)c(O)ccc3nc2-1 + Cc1[nH]c2ccc(F)cc2c1-c1nc2c3cccnc3c3ncccc3c2[nH]1
0.0656 µM: IC50 [2]
0.0542 µM: IC50 [1]
0.0672 µM: IC50 [4]
inactive: viability, T/C [7] 108% | viability, T/C [8] 96.6% | viability, T/C [9] 123% | viability, T/C [10] 69.8% | viability, T/C [11] 29% | viability, T/C [12] 9.65% | viability, T/C [13] 90.7% | viability, T/C [14] 115% | viability, T/C [15] 100% | viability, T/C [16] 91.8% | viability, T/C [17] 26% | viability, T/C [18] 10.2% | viability, T/C [19] 104% | viability, T/C [20] 120% | viability, T/C [21] 109% | viability, T/C [22] 84.7% | viability, T/C [23] 30.9% | viability, T/C [24] 9.94% | viability, T/C [25] 115% | viability, T/C [26] 97% | viability, T/C [27] 115% | viability, T/C [28] 95.3% | viability, T/C [29] 26.1% | viability, T/C [31] 115% | viability, T/C [32] 108% | viability, T/C [33] 103% | viability, T/C [34] 70.8% | viability, T/C [35] 34.1% | viability, T/C [36] 10.8% | viability, T/C [37] 91.8% | viability, T/C [38] 98% | viability, T/C [39] 97.9% | viability, T/C [40] 84.7% | viability, T/C [41] 33.8% | viability, T/C [42] 15.6%
0.0693 µM: IC50 [6]
0.061 µM: IC50 [5]
0.0663 µM: IC50 [3]
active: viability, T/C [30] 9.43%

CC(C)n1c(=O)n(C)c2cnc3cc(F)c(-c4ccc(OCCCN5CCCCC5)nc4)cc3c21
> 10 µM: IC50 (curve of compound)
inactive: viability, T/C (compound 0.0316 µM) 115% (2×) and 100% | viability, T/C (compound 0.1 µM) 96.9% and 107% and 94.7% | viability, T/C (compound 0.316 µM) 114% (2×) and 80.2% | viability, T/C (compound 1 µM) 91.4% and 95.4% and 89.3% | viability, T/C (compound 3.16 µM) 96.3% and 107% and 96.1% | viability, T/C (compound 10 µM) 95.6% and 95.5% and 84.2%

CC[C@@]1(O)C(=O)OCc2c1cc1n(c2=O)Cc2cc3c(CN(C)C)c(O)ccc3nc2-1 + Cc1cnc(CNC(=O)c2c(=O)c3ccc(N4CCCN(C)CC4)nc3n3c2sc2ccccc23)cn1
active: viability, T/C [36] 10.1% | viability, T/C [42] 6.12%
0.0562 µM: IC50 [1]
inactive: viability, T/C [7] 82.3% | viability, T/C [8] 80.4% | viability, T/C [9] 59.7% | viability, T/C [10] 71.6% | viability, T/C [11] 29% | viability, T/C [12] 12.1% | viability, T/C [13] 74.9% | viability, T/C [14] 78% | viability, T/C [15] 73.3% | viability, T/C [16] 46.7% | viability, T/C [17] 22.4% | viability, T/C [18] 16.2% | viability, T/C [19] 51.6% | viability, T/C [20] 47.2% | viability, T/C [21] 55% | viability, T/C [22] 29.6% | viability, T/C [23] 18.7% | viability, T/C [24] 15.6% | viability, T/C [25] 23.7% | viability, T/C [26] 24.9% | viability, T/C [27] 24.6% | viability, T/C [28] 19% | viability, T/C [29] 16.7% | viability, T/C [30] 11.2% | viability, T/C [31] 21.1% | viability, T/C [32] 29.1% | viability, T/C [33] 18.2% | viability, T/C [34] 17.8% | viability, T/C [35] 11.8% | viability, T/C [37] 21.3% | viability, T/C [38] 23.7% | viability, T/C [39] 22.1% | viability, T/C [40] 15.7% | viability, T/C [41] 11.5%
< 0.000999 µM: IC50 [4] | IC50 [5] | IC50 [6]
0.0107 µM: IC50 [3]
0.0278 µM: IC50 [2]

— PubChem BioAssay AID2060495 (Molecular Pharmacology Branch, DTP, NCI, 2025)
